In patent US11053235B2, “Substituted 1,4-dihydropyrimidines for the treatment of HBV infection or HBV-induced diseases” (Janssen Sciences Ireland Unlimited Company, priority 2018, dated 2021):

Tests used:
[1] = test system: HBV; assay: Anti-viral assay in HepG2.2.15 cells: HBV inhibitory activity (HBV DNA in culture medium by q-PCR); format: cell-based; details: Hepatitis B virus, HepG2.2.15, 144 h, HepG2.2.15 cells, 6 days treatment, HBV DNA in culture medium by q-PCR, highest concentration 10 uM; read-out: EC50
Outline: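 HepG2.2.15 cells seeded at 40,000/well in 2% FBS medium, dosed next day for 6 days (medium refreshed once midway); 8-point 3-fold dilutions from 10 uM top. HBV DNA in culture medium extracted and quantified by q-PCR; EC50 calculated from dose-response.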

[2] = Cytotoxicity determination in HepG2.2.15 cells (CCK-8); format: cell-based; details: human, 6 days treatment, CCK-8, highest concentration 100 uM
Outline: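 HepG2.2.15 cells seeded at 5,000 cells/well in 2% FBS medium and exposed to compounds for 6 days (medium refreshed once), 8 three-fold dilutions from 100 uM. Viability read by CCK-8 after 2.5 h at 37 °C, absorbance 450 nm with 630 nm reference; CC50 calculated.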

Compound `COC(=O)C1=C(C2CCN(c3ncc(CC(=O)O)c(C)n3)CC2)NC(c2nccs2)=NC1c1ccc(F)c(F)c1Cl` (single isomer, unassigned) [II-28-B, 2-(2-(4-(6-(2-Chloro-3,4-difluorophenyl)-5-(methoxycarbonyl)-2-(thiazol-2-yl)-3,6-dihydropyrimidin-4-yl)piperidin-1-yl)-4-methylpyrimidin-5-yl)acetic Acid] has an EC50 [1] of under 0.0046 µM and a CC50 at 6 days [2] of 5.33 µM.
Compound `COC(=O)C1=C(C2CCN(c3ncc(CC(=O)O)cn3)CC2)NC(c2nccs2)=NC1c1ccc(F)c(F)c1Cl` (single isomer, unassigned) [II-29-B, 2-(2-(4-(6-(2-Chloro-3,4-difluorophenyl)-5-(methoxycarbonyl)-2-(thiazol-2-yl)-3,6-dihydropyrimidin-4-yl)piperidin-1-yl)pyrimidin-5-yl)acetic Acid] has an EC50 [1] of under 0.0046 µM and a CC50 at 6 days [2] of 9.46 µM.
`COC(=O)C1=C(C2CCN(c3ncc(C(=O)O)s3)CC2)NC(c2nccs2)=NC1c1ccc(F)c(F)c1Cl` (single isomer, unassigned) [II-30-B, 2-(4-(6-(2-Chloro-3,4-difluorophenyl)-5-(methoxycarbonyl)-2-(thiazol-2-yl)-3,6-dihydropyrimidin-4-yl)piperidin-1-yl)thiazole-5-carboxylic Acid] showed an EC50 [1] of 0.0072 µM and a CC50 at 6 days [2] of 16 µM.
Work on `COC(=O)C1=C(C2CCN(c3nc(C(F)(F)F)c(C(=O)O)s3)CC2)NC(c2nccs2)=NC1c1ccc(F)c(F)c1Cl` (single isomer, unassigned) [II-31-B, 2-(4-(6-(2-Chloro-3,4-difluorophenyl)-5-(methoxycarbonyl)-2-(thiazol-2-yl)-3,6-dihydropyrimidin-4-yl)piperidin-1-yl)-4-(trifluoromethyl)thiazole-5-carboxylic Acid] yielded an EC50 [1] of 0.025 µM and a CC50 at 6 days [2] of 2.61 µM.
Compound `COC(=O)C1=C(C2CCN(c3nc(C(=O)O)cs3)CC2)NC(c2nccs2)=NC1c1ccc(F)c(F)c1Cl` (single isomer, unassigned) [II-32-B, 2-(4-(6-(2-Chloro-3,4-difluorophenyl)-5-(methoxycarbonyl)-2-(thiazol-2-yl)-3,6-dihydropyrimidin-4-yl)piperidin-1-yl)thiazole-4-carboxylic Acid] has an EC50 [1] of 0.046 µM and a CC50 at 6 days [2] of 11.1 µM.
In the case of `COC(=O)C1=C(C2CCN(c3nc(C(=O)O)co3)CC2)NC(c2nccs2)=NC1c1ccc(F)c(F)c1Cl` (single isomer, unassigned) [II-33-B, 2-(4-(6-(2-Chloro-3,4-difluorophenyl)-5-(methoxycarbonyl)-2-(thiazol-2-yl)-3,6-dihydropyrimidin-4-yl)piperidin-1-yl)oxazole-4-carboxylic Acid], the EC50 [1] is reported as 0.045 µM and the CC50 at 6 days [2] is reported as 18.6 µM.
For `CCOC(=O)C1=C(C2CCN(c3ccc(C(=O)O)cc3)CC2)NC(c2nccs2)=NC1c1ccc(F)c(F)c1Cl` (single isomer, unassigned) [II-35-A, 4-(4-(6-(2-Chloro-3,4-difluorophenyl)-5-(ethoxycarbonyl)-2-(thiazol-2-yl)-3,6-dihydropyrimidin-4-yl)piperidin-1-yl)benzoic Acid], the EC50 [1] was 0.02 µM and the CC50 at 6 days [2] was 3.96 µM.
`CCOC(=O)C1=C(C2CCN(c3cc(O)c(C(=O)O)cn3)CC2)NC(c2nccs2)=NC1c1ccc(F)c(F)c1Cl` (single isomer, unassigned) [II-36-B, 6-(4-(6-(2-chloro-3,4-difluorophenyl)-5-(ethoxycarbonyl)-2-(thiazol-2-yl)-3,6-dihydropyrimidin-4-yl)piperidin-1-yl)-4-hydroxynicotinic Acid] showed an EC50 [1] of 0.052 µM and a CC50 at 6 days [2] of 8.65 µM.
Compound `CCOC(=O)C1=C(C2CCN(c3cccc(C(=O)O)n3)CC2)NC(c2nccs2)=NC1c1ccc(F)c(F)c1Cl` (single isomer, unassigned) [II-37-B, 6-(4-(6-(2-Chloro-3,4-difluorophenyl)-5-(ethoxycarbonyl)-2-(thiazol-2-yl)-3,6-dihydropyrimidin-4-yl)piperidin-1-yl)picolinic Acid] has an EC50 [1] of 0.061 µM and a CC50 at 6 days [2] of 6.41 µM.
